Results taken from ChEMBL document CHEMBL1811875, “Inverse virtual screening of antitumor targets: pilot study on a small database of natural bioactive compounds” (J Nat Prod, 2011).

How the values were obtained:
NCI-H460 = assay: Cytotoxicity against human H460 cells assessed as stimulation of topoisomerase 1-mediated DNA cleavage; assay type: functional, cell-based
DNA topoisomerase 1 = target: T1, DNA topoisomerase 1 (Homo sapiens, UniProt P11387); assay: Binding affinity to topoisomerase 1
T1 sequence (P11387 whole entry): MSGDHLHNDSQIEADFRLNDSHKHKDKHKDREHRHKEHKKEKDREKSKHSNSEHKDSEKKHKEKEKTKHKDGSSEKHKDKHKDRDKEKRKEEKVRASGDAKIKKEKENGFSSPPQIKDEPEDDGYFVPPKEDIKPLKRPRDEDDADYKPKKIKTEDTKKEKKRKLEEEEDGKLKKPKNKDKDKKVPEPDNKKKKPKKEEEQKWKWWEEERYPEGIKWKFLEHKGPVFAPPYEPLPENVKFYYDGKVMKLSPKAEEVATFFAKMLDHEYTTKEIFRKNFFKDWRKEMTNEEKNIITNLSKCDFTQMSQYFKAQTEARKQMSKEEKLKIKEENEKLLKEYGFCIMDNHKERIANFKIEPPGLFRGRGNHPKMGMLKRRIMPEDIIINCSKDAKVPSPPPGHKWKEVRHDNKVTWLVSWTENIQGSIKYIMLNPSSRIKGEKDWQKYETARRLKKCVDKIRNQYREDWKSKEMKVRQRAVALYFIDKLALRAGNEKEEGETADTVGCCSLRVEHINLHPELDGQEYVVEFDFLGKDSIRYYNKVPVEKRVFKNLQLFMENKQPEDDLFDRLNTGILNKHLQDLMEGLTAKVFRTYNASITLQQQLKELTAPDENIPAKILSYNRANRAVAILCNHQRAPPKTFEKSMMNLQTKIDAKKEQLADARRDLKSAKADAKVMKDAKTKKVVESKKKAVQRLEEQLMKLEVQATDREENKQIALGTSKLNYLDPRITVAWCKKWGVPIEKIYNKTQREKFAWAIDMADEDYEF

Wee1-like protein kinase = Wee1-like protein kinase (Homo sapiens, UniProt P30291); assay: Binding affinity to weel kinase
Wee1-like protein kinase, sequence (P30291 whole entry): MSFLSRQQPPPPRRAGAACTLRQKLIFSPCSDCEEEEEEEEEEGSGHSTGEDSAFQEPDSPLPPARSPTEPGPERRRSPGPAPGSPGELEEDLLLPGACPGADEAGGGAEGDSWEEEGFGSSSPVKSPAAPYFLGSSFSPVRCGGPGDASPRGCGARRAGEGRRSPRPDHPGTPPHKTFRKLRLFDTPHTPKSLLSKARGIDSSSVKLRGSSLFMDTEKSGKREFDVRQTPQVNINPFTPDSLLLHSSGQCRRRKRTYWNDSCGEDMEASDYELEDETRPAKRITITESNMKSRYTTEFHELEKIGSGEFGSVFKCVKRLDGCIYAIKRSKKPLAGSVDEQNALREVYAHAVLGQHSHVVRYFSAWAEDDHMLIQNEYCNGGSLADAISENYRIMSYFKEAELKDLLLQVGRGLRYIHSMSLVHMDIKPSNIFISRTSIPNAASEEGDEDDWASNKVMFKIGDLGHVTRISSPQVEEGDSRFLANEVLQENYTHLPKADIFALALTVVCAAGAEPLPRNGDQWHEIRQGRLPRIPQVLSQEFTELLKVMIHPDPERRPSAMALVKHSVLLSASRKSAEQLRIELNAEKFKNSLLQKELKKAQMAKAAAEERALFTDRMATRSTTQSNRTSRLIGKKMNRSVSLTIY

SMILES | IC50 (NCI-H460) [nM] | Kd (DNA topoisomerase 1) [nM] | Kd (Wee1-like protein kinase) [nM]
CC[C@@]1(O)C(=O)OCc2c1cc1n(c2=O)Cc2c-1nc1ccccc1c2/C=N/c1ccccc1C | 400 | 0.296 | –
Cc1cc(=O)c2c(O)cc3c(c2o1)C(=O)c1c(O)cc(O)cc1C3=O [TOPOPYRONE C] | – | – | 1.35
CC[C@@]1(O)C(=O)OCc2c1cc1n(c2=O)Cc2c-1nc1ccccc1c2/C=N\OCCCO | 400 | 2.65 | –
CC[C@@]1(O)C(=O)OCc2c1cc1n(c2=O)Cc2cc3c(CN(C)C)c(O)ccc3nc2-1 [TOPOTECAN] | 1380 | – | –
